Residues, ends and D or L forms follow the SMILES beside them. *: point of attachment. pNA = O=[N+]([O-])c1ccc(N*)cc1; Bz = O=C(c1ccccc1)*

The test has as its target T1, ISP1-ISP2 enzyme complex (Mus musculus, UniProt Q924N9+Q99MS4).
T1 construct: The native ISP enzyme complex was purified from mouse uterine tissue homogenates; from tissue; host or cells: uterus of pregnant CD1 mice (4.5-6.5 dpc)
Description: Substrate affinity (Km) of synthetic chromogenic substrates for ISP enzyme complex. It is filed as biochemical. Conditions: Km = [S] at 1/2 Vmax. As to the method:
To determine the substrate specificity of the ISP complex and to classify it into a subclass of the S1 family of serine proteinases, enzyme assays were carried out using different p-nitroanilide linked peptide (1–3 mer) substrates. These included chymotrypsin-like (Tyr/Phe at cleavage (P1) site), trypsin-like (Arg/Lys at P1 position), elastase-like (Ala at P1 position), and subtilisin-like (Leu at P1 position) substrates. In order to compare affinity of specific substrates and derive Michaelis Menton constant (Km) values, the kinetic curves were plotted (substrate conc. [S] vs. rate of reaction [v]).
Chromogenic assays were carried out using the p-Nitroanilide conjugated peptidic substrates. The reaction conditions used were: 4 mM BAPNA (substrate), in 25 mM Tris.Cl (pH 8.0) and 10 mM EDTA reaction buffer, in a total reaction volume of 0.5 mL. The reactions were carried out at room temperature in a glass cuvette (1 cm path length), and scanned at wavelength maxima of 405 nm using a spectrophotometer. 1 Unit of enzyme is defined as enzyme activity sufficient for the breakdown of 1 μM of substrate/ml/min. The affinity of ISP complex with various substrates was characterized by measuring enzyme activity at differing substrate concentrations and plotting enzyme activity [V] vs. substrate concentration [S]. The Km was calculated using the Michaelis Menton equation (Km = [S] at 1/2 Vmax).

T1 sequence (Q924N9 27-274): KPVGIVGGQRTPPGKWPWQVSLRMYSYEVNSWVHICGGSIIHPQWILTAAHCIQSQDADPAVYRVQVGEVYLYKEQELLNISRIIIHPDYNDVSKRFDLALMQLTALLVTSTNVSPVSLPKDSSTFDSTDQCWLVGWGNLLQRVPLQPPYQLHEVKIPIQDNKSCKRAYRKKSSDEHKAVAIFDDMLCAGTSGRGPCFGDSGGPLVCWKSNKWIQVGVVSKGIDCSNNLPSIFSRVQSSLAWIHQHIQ
T1 sequence (Q99MS4 18-279): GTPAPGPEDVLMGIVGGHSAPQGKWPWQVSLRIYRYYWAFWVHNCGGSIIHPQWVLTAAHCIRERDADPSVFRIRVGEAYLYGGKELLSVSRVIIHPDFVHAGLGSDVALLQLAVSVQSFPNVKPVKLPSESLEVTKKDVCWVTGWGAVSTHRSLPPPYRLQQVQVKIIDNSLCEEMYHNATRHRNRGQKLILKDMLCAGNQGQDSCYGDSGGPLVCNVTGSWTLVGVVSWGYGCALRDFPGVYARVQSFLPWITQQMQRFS

In general, Km refers to the concentration of substrate that gives half-maximal velocity. For the compound `CC(C)[C@H](NC(=O)[C@H](Cc1ccccc1)NC(=O)c1ccccc1)C(=O)N[C@@H](CCCN=C(N)N)C(=O)Nc1ccc([N+](=O)[O-])cc1` [BPVANA, N-Benzoyl-Phe-Val-Arg-pNA] (Bz-Phe-Val-Arg-pNA), the Km amounted to 60 µM.

These data come from PMC1713233, “Implantation Serine Proteinases heterodimerize and are critical in hatching and implantation” (BMC Developmental Biology, 2006).
